Experiments:
[1] = tested on: Beet Armyworm (Spodoptera exigua) ("BAW"), second instar larvae; assay: Bioassay on beet armyworm (BAW), 128-well diet tray assay; format: in vivo; settings: Spodoptera exigua, read-out: BAW (Biological Results, rating)
Summary of the method: (§1)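 Sealed trays, 25° C., 14:10 light:dark, 5–7 d. Per-well % mortality recorded, mean of eight wells reported.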

[2] = tested on: Cabbage Looper (Trichoplusia ni) ("CL"), second instar larvae; assay: Bioassay on cabbage looper (CL), 128-well diet tray assay; format: in vivo; settings: Trichoplusia ni, read-out: CL (Biological Results, rating)
Summary of the method: as §1

Row | Compound | pest or weed control at 50 µg/cm2 [1] [%] | pest or weed control at 50 µg/cm2 [2] [%]
1 | COCOc1cc(-c2ncn(-c3ccc(OC(F)(F)F)cc3)n2)ccc1NC(=O)/N=C1\SCC(=O)N1c1cc(C)ccc1COCC(F)(F)F [Compound J173, (Z)-1-(2-(Methoxymethoxy)-4-(1-(4-(trifluoromethoxy)phenyl)-1H-1,2,4-triazol-3-yl)phenyl)-3-(3-(5-methyl-2-((2,2,2-trifluoroethoxy)methyl)phenyl)-4-oxothiazolidin-2-ylidene)urea] | 50 to 100 | 50 to 100
2 | CCOC(C)c1ccc(C)cc1N1C(=O)CS/C1=N\C(=O)Nc1ccc(-c2ncn(-c3ccc(OC(F)(F)F)cc3)n2)cc1OCOC (stereo not drawn) [Compound J174, (Z)-1-(3-(2-(1-Ethoxyethyl)-5-methylphenyl)-4-oxothiazolidin-2-ylidene)-3-(2-(methoxymethoxy)-4-(1-(4-(trifluoromethoxy)phenyl)-1H-1,2,4-triazol-3-yl)phenyl)urea] | 50 to 100 | 50 to 100
3 | Cc1ccc(C(C)C)c(N2C(=O)CS/C2=N\C(=O)Nc2ccc(-c3ncn(-c4ccc(OC(F)(F)F)cc4)n3)cc2O)c1 [Compound J175, (Z)-1-(2-hydroxy-4-(1-(4-(trifluoromethoxy)phenyl)-1H-1,2,4-triazol-3-yl)phenyl)-3-(3-(2-isopropyl-5-methylphenyl)-4-oxothiazolidin-2-ylidene)urea] | 50 to 100 | 50 to 100
4 | Cc1ccc(COCC(F)(F)F)c(N2C(=O)CS/C2=N\C(=O)Nc2ccc(-c3ncn(-c4ccc(OC(F)(F)F)cc4)n3)cc2O)c1 [Compound J178, (Z)-1-(2-Hydroxy-4-(1-(4-(trifluoromethoxy)phenyl)-1H-1,2,4-triazol-3-yl)phenyl)-3-(3-(5-methyl-2-((2,2,2-trifluoroethoxy)methyl)phenyl)-4-oxothiazolidin-2-ylidene)urea] | 50 to 100 | 50 to 100
5 | CCOC(C)c1ccc(C)cc1N1C(=O)CS/C1=N\C(=O)Nc1ccc(-c2ncn(-c3ccc(OC(F)(F)F)cc3)n2)cc1O (stereo not drawn) [Compound J179, (Z)-1-(3-(2-(1-Ethoxyethyl)-5-methylphenyl)-4-oxothiazolidin-2-ylidene)-3-(2-hydroxy-4-(1-(4-(trifluoromethoxy)phenyl)-1H-1,2,4-triazol-3-yl)phenyl)urea] | 50 to 100 | 50 to 100
6 | CN(C)c1ccc(C(F)(F)F)c(N2C(=O)CS/C2=N\C(=O)Nc2ccc(-c3ncn(-c4ccc(OC(F)(F)F)cc4)n3)cc2F)c1 [Compound J182, (Z)-1-(3-(5-(Dimethylamino)-2-(trifluoromethyl)phenyl)-4-oxothiazolidin-2-ylidene)-3-(2-fluoro-4-(1-(4-(trifluoromethoxy)phenyl)-1H-1,2,4-triazol-3-yl)phenyl)urea] | 50 to 100 | 50 to 100
7 | CN(C)c1ccc(OCCC(F)(F)F)c(N2C(=O)CS/C2=N\C(=O)Nc2ccc(-c3ncn(-c4ccc(C(F)(F)F)cc4)n3)cc2F)c1 [Compound J184, (Z)-1-(3-(5-(Dimethylamino)-2-(3,3,3-trifluoropropoxy)phenyl)-4-oxothiazolidin-2-ylidene)-3-(2-fluoro-4-(1-(4-(trifluoromethyl)phenyl)-1H-1,2,4-triazol-3-yl)phenyl)urea] | 50 to 100 | 50 to 100
8 | Cc1ccc(COCC(F)(F)F)c(N2C(=O)CS/C2=N\C(=O)Nc2ccc(-c3ncn(-c4ccc(SC(F)(F)F)cc4)n3)cc2F)c1 [Compound J186, (Z)-1-(2-Fluoro-4-(1-(4-((trifluoromethyl)thio)phenyl)-1H-1,2,4-triazol-3-yl)phenyl)-3-(3-(5-methyl-2-((2,2,2-trifluoroethoxy)methyl)phenyl)-4-oxothiazolidin-2-ylidene)urea] | 50 to 100 | 50 to 100
9 | COC(C)c1ccc(C)cc1N1C(=O)CS/C1=N\C(=O)Nc1ccc(-c2ncn(-c3ccc(SC(F)(F)F)cc3)n2)cc1F (stereo not drawn) [Compound J187, (Z)-1-(2-Fluoro-4-(1-(4-((trifluoromethyl)thio)phenyl)-1H-1,2,4-triazol-3-yl)phenyl)-3-(3-(2-(1-methoxyethyl)-5-methylphenyl)-4-oxothiazolidin-2-ylidene)urea] | 50 to 100 | 50 to 100
10 | CC(=O)N(C)c1ccc(C(C)C)c(N2C(=O)CS/C2=N\C(=O)Nc2ccc(-c3ncn(-c4ccc(OC(F)(F)F)cc4)n3)cc2F)c1 [Compound J188, (Z)-N-(3-(2-(((2-Fluoro-4-(1-(4-(trifluoromethoxy)phenyl)-1H-1,2,4-triazol-3-yl)phenyl)carbamoyl)imino)-4-oxothiazolidin-3-yl)-4-isopropylphenyl)-N-methylacetamide] | 50 to 100 | 50 to 100
11 | CCOCc1ccc(C)cc1N1C(=O)CS/C1=N\C(=O)Nc1ccc(-c2ncn(-c3ccc(SC(F)(F)F)cc3)n2)cc1F [Compound J195, (Z)-1-(3-(2-(Ethoxymethyl)-5-methylphenyl)-4-oxothiazolidin-2-ylidene)-3-(2-fluoro-4-(1-(4-((trifluoromethyl)thio)phenyl)-1H-1,2,4-triazol-3-yl)phenyl)urea] | 50 to 100 | 50 to 100
12 | O=C(/N=C1\SCC(=O)N1c1ccccc1N1CCCCC1)Nc1ccc(-c2ncn(-c3ccc(OC(F)(F)F)cc3)n2)cc1F [Compound J198, (Z)-1-(2-Fluoro-4-(1-(4-(trifluoromethoxy)phenyl)-1H-1,2,4-triazol-3-yl)phenyl)-3-(4-oxo-3-(2-(piperidin-1-yl)phenyl)thiazolidin-2-ylidene)urea] | 50 to 100 | 50 to 100
13 | CC(=O)N(C)c1ccc(C(C)C)c(N2C(=O)CS/C2=N\C(=O)Nc2ccc(-c3ncn(-c4ccc(OC(F)(F)F)cc4)n3)cc2C)c1 [Compound J199, (Z)-N-(4-Isopropyl-3-(2-(((2-methyl-4-(1-(4-(trifluoromethoxy)phenyl)-1H-1,2,4-triazol-3-yl)phenyl)carbamoyl)imino)-4-oxothiazolidin-3-yl)phenyl)-N-methylacetamide] | 50 to 100 | 50 to 100
14 | CCN(C(C)=O)c1ccc(C(C)C)c(N2C(=O)CS/C2=N\C(=O)Nc2ccc(-c3ncn(-c4ccc(OC(F)(F)F)cc4)n3)cc2C)c1 [Compound J200, (Z)-N-Ethyl-N-(4-isopropyl-3-(2-(((2-methyl-4-(1-(4-(trifluoromethoxy)phenyl)-1H-1,2,4-triazol-3-yl)phenyl)carbamoyl)imino)-4-oxothiazolidin-3-yl)phenyl)acetamide] | 50 to 100 | 50 to 100
15 | Cc1ccc(COCC(F)(F)F)c(N2C(=O)CS/C2=N\C(=O)Nc2ccc(-c3ncn(-c4ccc(SC(F)(F)F)cc4)n3)cc2C)c1 [Compound J204, (Z)-1-(3-(5-Methyl-2-((2,2,2-trifluoroethoxy)methyl)phenyl)-4-oxothiazolidin-2-ylidene)-3-(2-methyl-4-(1-(4-((trifluoromethyl)thio)phenyl)-1H-1,2,4-triazol-3-yl)phenyl)urea] | 50 to 100 | 50 to 100

Source: patent publication US20230077362A1 (CORTEVA AGRISCIENCE LLC, priority 2019, published 2023)
